# Experimental data from paper PMC7822874, “Chemoprotective antimalarials identified through quantitative high-throughput screening of Plasmodium blood and liver stage parasites” (Scientific Reports, 2021).
# Read-outs that look alike come from different tables or passages of the source.
# What was measured:
# [1] = in vitro; settings: human, hepg2 cells
# [2] = test system: Plasmodium falciparum Dd2 asexual blood stage parasites; assay: microbe, parasite or virus in culture; parameters: species or system Plasmodium falciparum Dd2 in human erythrocytes; single determination (one 11-point concentration-response curve); settings: Plasmodium falciparum, DD2, Erythrocyte, 72 h; read-out: AC50
# [3] = test system: P. berghei-ANKA-GFP-LucCON liver stage parasites in HepG2-A16-CD81EGFP cells; assay: P. berghei liver stage Pb-Luc assay, Method 1 (UCSD, 1536-well); assay type: cell-based, Plasmodium berghei; settings: for activity at 1 µM / activity at 3 µM / AC50: Plasmodium berghei; for activity at 1 µM / activity at 3 µM: 48 h, average of 2 wells, 1536-well plate; for activity at 1 µM: nominal 1 uM (10 mM stock), […] for 15 mM, 1.2 uM for 12 mM, 2 uM for 20 mM stock; for activity at 3 µM: nominal 3 uM (10 mM stock), 4.5 uM for 15 mM, 3.6 uM for 12 mM, 6 uM for 20 mM stock; for AC50: Method 1
# [4] = test system: HepG2-A16-CD81EGFP cells; settings: for HepG2 viability signal, 1 uM, repeat 2: nominal 1 uM (10 mM stock), […] for 15 mM, 1.2 uM for 12 mM, 2 uM for 20 mM stock; for HepG2 viability signal, 1 uM, repeat 2 / HepG2 viability signal, 3 uM, repeat 2: average of 2 wells; for HepG2 viability signal, 3 uM, repeat 2: nominal 3 uM (10 mM stock), 4.5 uM for 15 mM, 3.6 uM for 12 mM, 6 uM for 20 mM stock; for Average HepG2 3 µM response( %): averaged response (percent)
# [5] = in vitro; settings: human, HepG2-A16-CD81EGFP cells, uninfected
# [6] = test system: luciferase-expressing P. berghei liver stage parasites in HepG2 cells; assay: Inhibition of liver-stage development assay (ILSDA), Method 2 (WRAIR, 96-well); assay type: cell-based, Plasmodium berghei; settings: Method 2, dose response; for AC50: Plasmodium berghei, HepG2, P. berghei liver stage
# [7] = test system: P. falciparum Dd2 (clone B2) asexual blood stage parasites; assay: P. falciparum Dd2 asexual blood stage SYBR Green-I 72 h proliferation assay (qHTS); assay type: cell-based, Plasmodium falciparum; settings: Plasmodium falciparum
# [8] = test system: P. falciparum Dd2 Cytb G131S; assay: SYBR Green ABS proliferation assay, NCGC00374598 selected clone C11; assay type: cell-based, Plasmodium falciparum; settings: Plasmodium falciparum, DD2, […]; averaged from three independent replicates; top concentration 29 µM; read-out: Average AC50 (Log[M]), NCGC00374598 clone C11 (Cytb G131S) (converted)
# Method: As resistance selection studies implicated the parasite cytochrome bc1 complex in mediating reduced parasite susceptibility to both NCGC00473217 and NCGC00374598, we leveraged these drug-selected parasites to test for altered drug response to a panel of antimalarial compounds.
# The P. falciparum parasite Dd2 line was cultured in vitro using standard conditions. […] Tissue culture flasks and assay plates were incubated at 37 °C under a gas mixture of 5% CO2, 5% O2 and 90% N2. […] Significant differences were assessed using two-sided Student’s t-tests. All HTS assays were stopped and read at 72 h. Percent response values represent relative growth as judged by SYBR Green-I fluorescence intensity values normalized to controls.
# Fresh uninfected RBCs (0.5% hematocrit) were added on day 7 and media was changed every other day. […] Resistant parasites were maintained under drug media at a volume of 50 mL until a high parasitemia (> 5%) was achieved. Aliquots of the bulk resistant cultures were frozen in cryovials before cloning by limiting dilution in 96-well plates (seeded at 0.25 or 0.5 parasites/well)[70]. After 3 weeks of cloning, we screened for positive wells by flow cytometry with SYBR Green-stained cells. […] Parasites were harvested by saponin lysis at the trophozoite stage and genomic DNA was extracted using the QIAamp DNA Blood Midi Kit (Qiagen, Germantown, MD)[71].
# [9] = repeat 1, read-out: Pb-Luc signal, 1 uM, repeat 1
# [10] = repeat 2, read-out: Pb-Luc signal, 1 uM, repeat 2
# [11] = repeat 3, read-out: Pb-Luc signal, 1 uM, repeat 3
# [12] = repeat 1, read-out: Pb-Luc signal, 3 uM, repeat 1
# [13] = repeat 2, read-out: Pb-Luc signal, 3 uM, repeat 2
# [14] = repeat 3, read-out: Pb-Luc signal, 3 uM, repeat 3
# [15] = DD2, Dd2 parental, Hill fit, averaged from three independent replicates, top concentration 29 µM, read-out: Average AC50 (Log[M]), Dd2 (converted)
structure (smiles),measurement,setting,value
Cc1csc(Nc2ccc3c(n2)CN(Cc2ccccc2C)C(=O)CO3)n1 [NCGC00413860-01],CC50 at 48 h,[1],> 57 µM
same,AC50,[2],19.3 µM
O=C(c1ccc(-c2ncc3cnc(-c4cccc(F)c4)cn23)cc1)N1CCc2cccnc21 [NCGC00414026-01],CC50 at 48 h,[1],> 57 µM
O=c1c2nc(-c3cccc(O)c3)ccc2ncn1C1CC1 [NCGC00414734-01],CC50 at 48 h,[1],> 57 µM
Cc1noc(C)c1-c1cc2c(cc(-c3ccccc3)n2C)c(-c2ccnn2C)n1 [NCGC00417162-01],CC50 at 48 h,[1],> 57 µM
same,AC50,[2],8.63 µM
Cc1nn2c(c1-c1ccccc1-c1ccccc1)N(Cc1cccc(O)c1)CCC2 [NCGC00420293-01],CC50 at 48 h,[1],> 57 µM
same,AC50,[2],4.85 µM
Cc1nn2c(c1-c1ccccc1Oc1ccccc1)N(Cc1cccc(O)c1)CCC2 [NCGC00420295-01],CC50 at 48 h,[1],> 57 µM
same,AC50,[2],10.9 µM
Cc1nn2c(c1-c1ccccc1[S+](C)(=O)[O-])N(Cc1ccc(C(=O)O)s1)CCC2 [NCGC00420344-01],CC50 at 48 h,[1],> 57 µM
same,AC50,[2],7.69 µM
Cc1nn2c(c1-c1ccccc1C(C)C)N(CCC(C)C)CCC2 [NCGC00420439-01],CC50 at 48 h,[1],> 57 µM
same,AC50,[2],2.17 µM
Cc1nn2c(c1-c1ccccc1Oc1ccccc1)N(Cc1ccccc1O)CCC2 [NCGC00420455-01],CC50 at 48 h,[1],> 57 µM
same,activity at 1 µM,[3]; [9],75.6%
same,activity at 1 µM,[3]; [10],75%
same,activity at 1 µM,[3]; [11],78.3%
same,activity at 3 µM,[3]; [12],1.18%
same,activity at 3 µM,[3]; [13],4.89%
same,activity at 3 µM,[3]; [14],23.7%
same,AC50,"[3]; Hill fit, 50% of maximum activity response, read-out: AC50",1.41 µM
same,AC50,"[3]; log10 of molar AC50 from Hill fit, read-out: Log AC50 (converted)",1.41 µM
same,"HepG2 viability signal, 1 uM, repeat 2",[4],99.80%
same,"HepG2 viability signal, 3 uM, repeat 2",[4],116.91%
same,AC50,[2],4.85 µM
same,"viability at 48 h, 1 µM",[5],104%
same,"viability at 48 h, 3 µM",[5],115%
Cc1nn2c(c1-c1ccccc1OCc1ccccc1)N(Cc1ccccc1)CCC2 [NCGC00420471-01],CC50 at 48 h,[1],> 57 µM
same,AC50,[2],15.3 µM
COc1ccc(N2CCN(c3cc(C4CC(N)C4)nc(N)n3)CC2(C)C)cc1 (stereo not shown) [NCGC00422579-01],CC50 at 48 h,[1],> 57 µM
same,activity at 1 µM,[3]; [9],82.6%
same,activity at 1 µM,[3]; [10],91.8%
same,activity at 1 µM,[3]; [11],99.3%
same,activity at 3 µM,[3]; [12],76.6%
same,activity at 3 µM,[3]; [13],88.5%
same,activity at 3 µM,[3]; [14],81.6%
same,"HepG2 viability signal, 1 uM, repeat 2",[4],102.33%
same,"HepG2 viability signal, 3 uM, repeat 2",[4],97.69%
same,AC50,[2],2.99 µM
same,"viability at 48 h, 1 µM",[5],103%
same,"viability at 48 h, 3 µM",[5],102%
COc1ccc(-c2cc3nc4c(c(=O)n3[nH]2)CN(C(=O)c2ccc(Cc3c(C)noc3C)o2)CC4)cc1 [NCGC00440331-01],CC50 at 48 h,[1],0.685 µM
O=c1[nH]c(N2CCOCC2)nc2c1CCN(Cc1ccc(Cl)cc1F)CC2 [NCGC00440653],Activity direction (Decrease / Inactive),[6]; P. berghei liver stage,Decrease
same,AC50,[6]; read-out: AC50,0.112 µM
same,AC50,[6]; read-out: Log AC50 (converted),0.112 µM
same,Average P. berghei 3 µM response( %),"[3]; P. berghei liver stage, 3 µM dose, averaged response (percent)",41%
same,Average P. berghei 1 µM response (%),"[3]; P. berghei liver stage, the header list (r8) defines it as the 1 µM dose, averaged response (percent)",39%
same,Average HepG2 3 µM response( %),"[4]; HepG2, 3 µM dose",102%
same,Average HepG2 3 µM response( %),"[4]; HepG2, the header list (r10) describes it as the 1 µM dose",102%
same,AC50,"[7]; DD2, averaged P. falciparum asexual blood stage potency, log10 of AC50 in M, read-out: Pf ABS Log AC50 (converted)",3.35e-06 M
CCCN1C(CC(C)C)=N[S+](=O)([O-])c2cc(NC(=O)C(=O)OCC)ccc21 [NCGC00521135-01],AC50,[8],7.96e-06 M
same,AC50,[7]; [15],1.59e-05 M
CCCN1C(CC(C)C)=N[S+](=O)([O-])c2cc(N[S+](=O)([O-])c3ccccc3)ccc21 [NCGC00521146-01],AC50,[8],7.1e-06 M
same,AC50,[7]; [15],7.96e-06 M
